# According to US10130652B2, “Anti-inflammatory compositions” (INDENA S.P.A., priority 2010, dated 2018):
# Marks after values point to notes of the source that are not given here.
# System: myeloperoxidase (MPO)
# Assay: Myeloperoxidase (MPO) expression/activity inhibition in LPS-stimulated skin PMNs (ELISA on cell supernatants)
# Type: cell-based
# Settings: human skin PMNs stimulated with LPS, positive reference at 0.1%, 6 hours of incubation
# Experimental: Tamarind Seed Polysaccharide (either alone and in combination with standardized botanical extracts) was tested for its ability to reduce inflammation cellular response through the measurement of the inhibition of myeloperoxidase (MPO) activity in polymorphonuclear neutrophils (PMNs). Inflammation, in particular during the acute phase, causes the migration of PMNs towards the inflammation site by chemotaxis. It is also known that the degree of MPO activity is directly proportional to the number of PMNs present in the tissue and to the inflammatory response. Thus, a reduction of the number of PMNs corresponds to a reduction in the activity of myeloperoxidase and it can he then concluded that the cellular response to inflammation is reduced accordingly.
# Human skin PMNs were cultivated in bacteriological Petri dishes with 100 mm diameter. Cell culture medium was RPMI-1640 supplemented with Penicillin (100 U/ml), Streptomycin (100 mcg/ml), L-glutamin (2 mM) and 10% heat-inactivated and filtered FCS (Foetal Calf Serum). PMNs were then stimulated with the addition of LPS (lipopolysaccharides) to the cultivation media. […]
# After 6 hours of incubation, the overall inhibition of myeloperoxidase (MPO) activity was quantified in the PMNs cell supernatants using an enzyme immunoassay kit (ELISA).
smiles,measurement,value
C[C@@H]1C[C@H]2[C@@H]3CCC4=CC(=O)C=C[C@]4(C)[C@@]3(F)[C@@H](O)C[C@]2(C)[C@@]1(O)C(=O)CO [Dexamethasone],MPO Inhibition of Expression (Δ % vs. basal),−30%*
